This note sets out measurements from patent US8173428B2, “LNA oligonucleotides and the treatment of cancer” (Santaris Pharma A/S, priority 2004, dated 2012).

Data set [1] concerns 15PC3 cells. The experiment in a line: Caspase 3/7 assay, oligonucleotide in combination with Taxol. The format is cell-based, human. Conditions: 10 nM oligonucleotide with Taxol (10 nM or 100 nM), 48 hours and 72 hours. The method, then: Cell culturing: Human prostate cancer 15PC3 cells (kindly provided by Dr. F Baas, Neurozintuigen Laboratory, AMC, The Netherlands) were seeded to a density of 8×10E5 cells in T75-flasks and grown for two days at 37° C. and 5% CO2 in DMEM supplemented with 10% FBS, Glutamax and Gentamicin. Two days following seeding cells were transfected with 2-10 nM SEQ ID NO. 2 using Lipofectamine at a final conc. of 7.5 μg/ml. Transfections were carried out as described by Dean et al. (1994, JBC 269 p. 16416 16424). In short cells were incubated with Lipofectamine diluted in OptiMEM for 7-10 min followed by the addition of the oligonucleotide to total volume of 8.7 ml per T75 flask. […] Cells were harvested for either mRNA extraction, Caspase 3/7 assay or fixed, stained with PI and analysed by FACS analysis.
Caspase 3/7 assay: An equal amount of 15PC3 cells ranging from 2500-10000 cells were harvested by centrifugation at the indicated periods and plated in white 96 well plates (Nunc 136101) in DMEM. 100 μl of the highly sensitive Caspase 3/7-Glo™ Reagent (Promega) was added directly to the cells in 96 well and plates were incubated for 1 hour before recording luminescence (luciferase activity) in Luminoskan Ascent instrument from Thermo Labsystems after further 1 min lag period. The luciferase activity is measured as Relative Light Units per seconds (RLU/s). […]

Data set [2] concerns 15PC3 cells. In words: Cell cycle analysis by propidium iodide staining and FACS. The format is cell-based, human. Conditions: transfected 15PC3 cells exposed to different concentrations of Taxol. The method, then:
Cell culturing: Human prostate cancer 15PC3 cells (kindly provided by Dr. F Baas, Neurozintuigen Laboratory, AMC, The Netherlands) were seeded to a density of 8×10E5 cells in T75-flasks and grown for two days at 37° C. and 5% CO2 in DMEM supplemented with 10% FBS, Glutamax and Gentamicin. Two days following seeding cells were transfected with 2-10 nM SEQ ID NO. 2 using Lipofectamine at a final conc. of 7.5 μg/ml. Transfections were carried out as described by Dean et al. (1994, JBC 269 p. 16416 16424). In short cells were incubated with Lipofectamine diluted in OptiMEM for 7-10 min followed by the addition of the oligonucleotide to total volume of 8.7 ml per T75 flask. 4 hours following transfection cells were washed in OptiMEM and grown at 37° C. for 12-96 hours in complete growth medium with or without the addition of 2-100 nM Taxol (Sigma Aldrich). Cells were harvested for either mRNA extraction, Caspase 3/7 assay or fixed, stained with PI and analysed by FACS analysis.
Cell culturing and transfections: As in example 13.
Fixation and PI staining: Cells were washed in PBS, harvested and resuspended in 100 μl in ice cold PBS. 900 μl ice cold 70% […] and fixed cells were kept at −20 until use. […]
SEQ ID NO. 2 transfected 15PC3 cells were exposed to different concentrations of Taxol and analysed by Propidium Iodide staining and subsequent FACS analysis (FIG. 7a-c). […]

The next data set deals with rats. The experiment in a line: i.v. acute toxicity study in rats. The format is in vivo. From the text: For SEQ ID NO. 2 the following was found among others in preclinical toxicity studies: […]
Data set [3] relates to Survivin full length, Survivin2B and SurvivinΔex3 mRNA. In words: Survivin splice variant mRNA expression by real-time PCR in 15PC3 cells. The format is cell-based, human. Conditions: 5 nM, normalised to GAPDH, relative to mock. The method, then: Cell culturing and transfections: 15PC3 cells were seeded in 12-well plates and grown for two days at 37° C. (5% CO2) in DMEM supplemented with 10% FBS, Glutamax I and Gentamicin. When the cells were 60-70% confluent, they were transfected in duplicates with different concentrations of oligonucleotides (0.2-25 nM) using Lipofectamine 2000 (10 μg/ml). Transfections were carried out essentially as described by Dean et al. (1994, JBC 269:16416-16424). In short, cells were incubated for 10 min. with Lipofectamine in OptiMEM followed by addition of oligonucleotide to a total volume of 0.5 ml transfection mix per well. […]
To determine the relative Survivin mRNA level in oligonucleotide treated and untreated cells, the generated cDNA was used in quantitative PCR analysis using an iCycler from BioRad. The cDNA was diluted 5-fold and 8 μl was mixed with 52 μl Taqman probe master mix containing 30 μl Platinum Quantitative PCR SuperMix UDG 2×PCR master mix (Invitrogen), 3 μl 20× Taqman probe and primer mix (forward primer: 5′[…] (SEQ ID NO:29), final 0.9 μM. Reverse primer: 5′[…] (SEQ ID NO:30), final 0.6 μM and taqman probe: FAM-[…]-TAMRA (SEQ ID NO:31), final 0.1 μM) and 19 μl H2O. […]
The primers and probe were obtained from Proligonucleotide (France). […] Relative quantities of Survivin mRNA were determined from the calculated threshold cycle using the iCycler IQ Real Time Detection System software.

Oligonucleotides are written 5' to 3', each unit as a sugar letter and its base; * is a phosphorothioate linkage, no mark a phosphodiester; rarer units and linkages stand in square brackets, end groups in braces. Plain capitals give the bases only. l = locked nucleic acid (LNA); [5mC] = 5-methylcytosine; d = 2'-deoxy (DNA)

Turning to “5′-^MeCsTs^MeCsAsastscscsastsgsgs^MeCsAsGsc-3′ (l[5mC]*lT*l[5mC]*lA*dA*dT*dC*dC*dA*dT*dG*dG*l[5mC]*lA*lG*dC) [SEQ ID NO. 2]”, the “Induction of apoptosis (Caspase 3/7 activity) in combination with Taxol” value in the data set on 15PC3 cells [1] is on record as “clear additive effect on the induction of apoptosis”. For the same substance, the “Cells trapped in the G2 or G4 phase, combination with Taxol” value in the data set with 15PC3 cells [2] is on record as “increasing amount of cells trapped in the G2 or even G4 phase”. Also, the lowest lethal dose with rats came out at 1000 mg/kg. The “Expression of the 3 isoforms of Survivin mRNA” value in data set [3] is recorded as “able to down-regulate all expressed isoforms of human Survivin”.
